Measured values reported in patent US20240226098A1, “COMPOUNDS AND METHODS FOR MODULATING SPLICING” (REMIX THERAPEUTICS INC., priority 2020, published 2024).
pIC50: −log10 of the molar value.

Tests used:
Type in all cases: cell-based
[1] = tested on: HTT mRNA, alternative junction (AJ); experiment: Splicing assay (RT-qPCR): increase in HTT alternative junction (AJ) mRNA; settings: A673 or K562 cell line, 24 hours treatment, top dose 10 uM; concentration having 50% response in AJ increase
Method: (§1) Compounds described herein were used to modulate RNA transcript abundance in cells. The expression of a target mRNA was measured by detecting the formation of an exon-exon junction in the canonical transcript (CJ). A compound mediated exon-inclusion event was detected by observing an increase in formation of a new junction with an alternative exon (AJ). Real-time qPCR assays were used to detect these splicing switches and interrogate the potency of various compounds towards different target genes. A high-throughput real time quantitative PCR (RT-qPCR) assay was developed to measure these two isoforms of the mRNA (CJ and AJ) for an exemplary gene, HTT, together with a control housekeeping gene, GAPDH or GUSB or PPIA, used for normalization. Briefly, the A673 or K562 cell line was treated with various compounds described herein (e.g., compounds of Formula (I)). After treatment, the levels of the HTT mRNA targets were determined from each sample of cell lysate by cDNA synthesis followed by qPCR.
(§2) • Cells-to-CT 1-step kit: ThermoFisher A25602, Cells-to-CT lysis reagent: ThermoFisher 4391851C, TaqMan™ Fast Virus 1-Step Master Mix: ThermoFisher 4444436 • GAPDH: VIC-PL, ThermoFisher 4326317E (Assay: Hs99999905_ml)—used for K562/suspension cell lines • GUSB: VIC-PL, ThermoFisher 4326320E (Assay: Hs99999908_ml)—used for K562/suspension cell lines • PPIA: VIC-PL, ThermoFisher 4326316E (Assay: Hs99999904_ml)—used for A673/adherent cell lines
(§3) The A673 cell line was cultured in DMEM with 10% FBS. Cells were diluted with full growth media and plated in a 96-well plate (15,000 cells in 100 ul media per well). The plate was incubated at 37° C. with 5% CO2 for 24 hours to allow cells to adhere. An 11-point 3-fold serial dilution of the compounds was made in DMSO then diluted in media in an intermediate plate. Compounds were transferred from the intermediate plate to the cell plate with the top dose at a final concentration of 10 uM in the well. Final DMSO concentration was kept at or below 0.25%. The cell plate was returned to the incubator at 37° C. with 5% CO2 for an additional 24 hours.
(§4) The K562 cell line was cultured in IMDM with 10% FBS. For K562, cells were diluted with full growth media and plated in either a 96-well plate (50,000 cells in 50 uL media per well) or a 384-well plate (8,000-40,000 cells in 45 uL media per well). An 11-point 3-fold serial dilution of the compounds were made in DMSO then diluted in media in an intermediate plate. Compound was transferred from the intermediate plate to the cell plate with the top dose at a final concentration of 10 uM in the well. Final DMSO concentration was kept at or below 0.25%. Final volume was 100 uL for 96-well plate and 50 uL for 384-well plate. The cell plate was then placed in an incubator at 37° C. with 5% CO2 for 24 hours.
(§5) The cells were then gently washed with 50 uL-100 uL cold PBS before proceeding to addition of lysis buffer. 30 uL-50 uL of room temperature lysis buffer with DNAse I (and optionally RNAsin) was added to each well. Cells were shaken/mixed thoroughly at room temperature for 5-10 minutes for lysis to take place and then 3 uL-5 uL of room temperature stop solution was added and wells were shaken/mixed again. After 2-5 minutes, the cell lysate plate was transferred to ice for RT-qPCR reaction setup. The lysates could also be frozen at −80° C. for later use.
(§6) In some cases, a direct lysis buffer was used. An appropriate volume of 3× lysis buffer (10 mM Tris, 150 mM NaCl, 1.5%-2.5% Igepal and 0.1-1 U/uL RNAsin, pH 7.4) was directly added to either K562 or A673 cells in media and mixed by pipetting 3 times. The plates were then incubated at room temperature with shaking/rocking for 20-50 minutes to allow for lysis to take place. After this time, the cell lysate plate was transferred to ice to set up for the RT-qPCR reactions. The lysates could also be frozen at −80° C. for later use. […]

[2] = tested on: HTT mRNA, canonical junction (CJ); experiment: Splicing assay (RT-qPCR): decrease in HTT canonical junction (CJ) mRNA; settings: A673 or K562 cell line, 24 hours treatment, top dose 10 uM; concentration having 50% response in CJ decrease
Method: as §1, §2, §3, §4, §5, §6

[3] = tested on: HTT CJ mRNA; experiment: Gene panel canonical junction qPCR assay: decrease in HTT CJ mRNA; settings: protocol as for Table 2, read-out: HTT (IC50, decrease in CJ mRNA levels)
Method: as §1, §3, §4, §5
(§7) In some cases, a direct lysis buffer was used. An appropriate volume of 3× lysis buffer (10 mM Tris, 150 mM NaCl, 1.5%-2.5% Igepal and 0.1-1 U/uL RNAsin, pH 7.4) was directly added to either K562 or A673 cells in media and mixed by pipetting 3 times. The plates were then incubated at room temperature with shaking/rocking for 20-50 minutes to allow for lysis to take place. After this time, the cell lysate plate was transferred to ice to set up for the RT-qPCR reactions. The lysates could also be frozen at −80° C. for later use.
(§8) To set up 10 uL RT-qPCR reactions, cell lysates were transferred to 384-well qPCR plates containing the master mix according to the table below. The plates were sealed, gently vortexed, and spun down before the run. The volumes were adjusted accordingly in some instances where the reaction was carried in 20 uL. The table below summarizes the components of the RT-qPCR reactions:
(§9) The RT-qPCR reaction was performed using a QuantStudio (ThermoFisher) under the following fast cycling conditions. […]

[4] = tested on: SMN2 CJ mRNA; experiment: Gene panel canonical junction qPCR assay: decrease in SMN2 CJ mRNA; settings: protocol as for Table 2, read-out: SMN2 (IC50, decrease in CJ mRNA levels)
Method: as §1, §3, §4, §5, §7, §8, §9

[5] = tested on: Target C CJ mRNA; experiment: Gene panel canonical junction qPCR assay: decrease in Target C CJ mRNA; settings: protocol as for Table 2, read-out: Target C (IC50, decrease in CJ mRNA levels)
Method: as §1, §3, §4, §5, §7, §8, §9

`CCN1CCC(c2ccc(C(=O)Nc3cc(F)c4nc(C)cn4c3)c3nnccc23)CC1` [Compound 141, 5-(1-ethylpiperidin-4-yl)-N-[8-fluoro-2-methylimidazo[1,2-a]pyridin-6-yl] cinnoline-8-carboxamide] showed an AC50 [1] of 1000 to 10000 nM, an AC50 [2] of 1000 to 10000 nM and a pIC50 [3] of 5.00 to 6.00. For the same compound, the pIC50 [4] was over 7.00 and the pIC50 [5] was 5.00 to 6.00.
Compound `Cn1cc2c(F)cc(NC(=O)c3ccc(N4CCNCC4)c4ccnnc34)cc2n1` [Compound 116, N-(4-fluoro-2-methylindazol-6-yl)-5-(piperazin-1-yl) cinnoline-8-carboxamide] has an AC50 [1] of over 10000 nM, an AC50 [2] of over 10000 nM and a pIC50 [3] of under 5.00. For the same compound, the pIC50 [4] was under 5.00 and the pIC50 [5] was under 5.00.
`Cc1cn2cc(NC(=O)c3ccc(N4C[C@H]5C[C@@H]4C5N(C)C)c4ccnnc34)cc(F)c2n1` (stereo partly drawn) [Compound 148, 5-[(1R,4R)-5-(dimethylamino)-2-azabicyclo [2.1.1]hexan-2-yl]-N-[8-fluoro-2-methylimidazo[1,2-a]pyridin-6-yl] cinnoline-8-carboxamide] was tested, and the AC50 [1] was 1000 to 10000 nM, the AC50 [2] was 1000 to 10000 nM and the pIC50 [3] was 5.00 to 6.00. The pIC50 [4] was 5.00 to 6.00 and the pIC50 [5] was 5.00 to 6.00.
Compound `Cc1cn2cc(NC(=O)c3ccc(N4CCC(N(C)C)CC4)c4nccnc34)cc(F)c2n1` [Compound 158, 8-[4-(dimethylamino)piperidin-1-yl]-N-[8-fluoro-2-methylimidazo[1,2-a]pyridin-6-yl] quinoxaline-5-carboxamide] has an AC50 [1] of 100 to 1000 nM, an AC50 [2] of 100 to 1000 nM and a pIC50 [3] of 6.00 to 7.00. The pIC50 [4] was over 7.00 and the pIC50 [5] was 5.00 to 6.00.
`Cc1cn2cc(NC(=O)c3ccc(N4CCNCC4)c4nccnc34)cc(F)c2n1` [Compound 111, N-[8-fluoro-2-methylimidazo[1,2-a]pyridin-6-yl]-8-(piperazin-1-yl) quinoxaline-5-carboxamide] gave an AC50 [1] of 1000 to 10000 nM, an AC50 [2] of 1000 to 10000 nM and a pIC50 [3] of 5.00 to 6.00. It also gave a pIC50 [4] of over 7.00 and a pIC50 [5] of 6.00 to 7.00.
`O=C(Nc1cn[nH]c1)c1ccc(N2CCNCC2)c2ccnnc12` [Compound 126, 5-(piperazin-1-yl)-N-(1H-pyrazol-4-yl)cinnoline-8-carboxamide] gave an AC50 [1] of over 10000 nM, an AC50 [2] of over 10000 nM and a pIC50 [3] of under 5.00. The pIC50 [4] was under 5.00 and the pIC50 [5] was under 5.00.
In the case of `Cc1cn2cc(NC(=O)c3ccc(N4CCN(C)C(C)C4)c4ccnnc34)cc(F)c2n1` (stereo in doubt) [Compound 149, 5-[(3S)-3,4-dimethylpiperazin-1-yl]-N-[8-fluoro-2-methylimidazo[1,2-a]pyridin-6-yl]cinnoline-8-carboxamide], the AC50 [1] was 1000 to 10000 nM, the AC50 [2] was 1000 to 10000 nM and the pIC50 [3] was 5.00 to 6.00. For the same compound, the pIC50 [4] was over 7.00 and the pIC50 [5] was 5.00 to 6.00.
`Cc1cn2cc(NC(=O)c3ccc(N4CCNC(C)C4)c4ccnnc34)cc(F)c2n1` (stereo in doubt) [Compound 147, N-[8-fluoro-2-methylimidazo[1,2-a]pyridin-6-yl]-5-[(3R)-3-methylpiperazin-1-yl]cinnoline-8-carboxamide] showed an AC50 [1] of 1000 to 10000 nM, an AC50 [2] of 1000 to 10000 nM and a pIC50 [3] of 5.00 to 6.00. The pIC50 [4] was over 7.00 and the pIC50 [5] was 5.00 to 6.00.
With `Cc1cn2cc(NC(=O)c3ccc(N4CCC(N5CCCC5)C4)c4ccnnc34)cc(F)c2n1` (centres unmarked) [Compound 133, 5-[[1,3-bipyrrolidin]-1-yl]-N-[8-fluoro-2-methylimidazo[1,2-a]pyridin-6-yl]cinnoline-8-carboxamide] the AC50 [1] was 1000 to 10000 nM, the AC50 [2] was 1000 to 10000 nM and the pIC50 [3] was 5.00 to 6.00. It also gave a pIC50 [4] of over 7.00 and a pIC50 [5] of 5.00 to 6.00.
`Cc1cn2cc(NC(=O)c3ccc(N4CCC(N(C)C)CC4)c4ccnnc34)cc(F)c2n1` [Compound 137, 5-[4-(dimethylamino)piperidin-1-yl]-N-[8-fluoro-2-methylimidazo[1,2-a]pyridin-6-yl] cinnoline-8-carboxamide] gave an AC50 [1] of 100 to 1000 nM, an AC50 [2] of 100 to 1000 nM and a pIC50 [3] of 6.00 to 7.00. It also gave a pIC50 [4] of over 7.00 and a pIC50 [5] of 6.00 to 7.00.
`Cn1cc2ccc(NC(=O)c3ccc(N4CCNCC4)c4ccnnc34)cc2n1` [Compound 115, N-(2-methylindazol-6-yl)-5-(piperazin-1-yl) cinnoline-8-carboxamide] gave an AC50 [1] of over 10000 nM, an AC50 [2] of over 10000 nM and a pIC50 [3] of under 5.00. For the same compound, the pIC50 [4] was under 5.00 and the pIC50 [5] was under 5.00.
In the case of `Cc1cn2cc(NC(=O)c3ccc(N4CCNCC4)c4ccnnc34)cc(F)c2n1` [Compound 101, N-[8-fluoro-2-methylimidazo[1,2-a]pyridin-6-yl]-5-(piperazin-1-yl) cinnoline-8-carboxamide], the AC50 [1] was 100 to 1000 nM, the AC50 [2] was 100 to 1000 nM and the pIC50 [3] was 6.00 to 7.00. The pIC50 [4] was over 7.00 and the pIC50 [5] was 5.00 to 6.00.
With `Cc1nc2c(F)cc(NC(=O)c3ccc(N4CCNCC4)c4ccnnc34)cc2s1` [Compound 118, N-(4-fluoro-2-methyl-1,3-benzothiazol-6-yl)-5-(piperazin-1-yl) cinnoline-8-carboxamide] the AC50 [1] was 100 to 1000 nM, the AC50 [2] was 100 to 1000 nM and the pIC50 [3] was 6.00 to 7.00. The pIC50 [4] was over 7.00 and the pIC50 [5] was 6.00 to 7.00.
For `Cc1cn2cc(NC(=O)c3ccc(N4CCNCC4)c4ccnnc34)ncc2n1` [Compound 120, N-[2-methylimidazo[1,2-a]pyrazin-6-yl]-5-(piperazin-1-yl) cinnoline-8-carboxamide], the AC50 [1] was over 10000 nM, the AC50 [2] was over 10000 nM and the pIC50 [3] was under 5.00. It also gave a pIC50 [4] of over 7.00 and a pIC50 [5] of under 5.00.
Compound `Cc1cn2cc(NC(=O)c3ccc(N4CCNCC4)c4cncnc34)cc(F)c2n1` [Compound 112, N-[8-fluoro-2-methylimidazo[1,2-a]pyridin-6-yl]-5-(piperazin-1-yl)quinazoline-8-carboxamide] has an AC50 [1] of 1000 to 10000 nM, an AC50 [2] of 1000 to 10000 nM and a pIC50 [3] of 5.00 to 6.00. The pIC50 [4] was over 7.00 and the pIC50 [5] was 6.00 to 7.00.
`Cc1cn2cc(NC(=O)c3ccc(N4CCNCC4)c4ccnnc34)cc(C)c2n1` [Compound 125, N-[2,8-dimethylimidazo[1,2-a]pyridin-6-yl]-5-(piperazin-1-yl)cinnoline-8-carboxamide] showed an AC50 [1] of 1000 to 10000 nM, an AC50 [2] of 1000 to 10000 nM and a pIC50 [3] of 5.00 to 6.00. The pIC50 [4] was over 7.00 and the pIC50 [5] was 5.00 to 6.00.
